According to the Deep4Chem optical property database:
Values joined by “and” are separate entries in the source; they are usually repeats but may differ in a detail not shown here. Identical values can stand only once.

Assay: solvent given as SMILES

`COc1cc2cc(/C=C/c3ccc(/C=C/c4ccc(/C=C(\C#N)C(=O)O)cc4)cc3)c(=O)oc2cc1OC` showed an emission maximum (in CC#N) of 489 nm.

In the case of `F[B-]1(F)n2c(Cl)c(Cl)c(Br)c2C(Cl)=C2C(Br)=C(Cl)C(Cl)=[N+]21`, the emission maximum (in ClCCl) was 560 nm.

`F[B-]1(F)n2c(-c3cccs3)cc(-c3ccccc3)c2N=C2C(c3ccccc3)=CC(c3cccs3)=[N+]21` gave an emission maximum (in CC#N) of 732 nm and an emission maximum (in ClCCl) of 740 nm.

For `CCCCC1(CCCC)c2cc(C#Cc3ccc(C=C4c5ccccc5CCc5ccccc54)cc3)ccc2-c2ccc(C#Cc3ccc(C=C4c5ccccc5CCc5ccccc54)cc3)cc21`, the emission maximum (in C1CCOC1) was 406 nm.

Work on `CCCCCCn1c2c(c3cc(-c4ccc5ccc6cccc7ccc4c5c67)ccc31)-c1c(c3cc(-c4ccc5ccc6cccc7ccc4c5c67)ccc3n1CCCCCC)-c1c(c3cc(-c4ccc5ccc6cccc7ccc4c5c67)ccc3n1CCCCCC)-c1c-2c2cc(-c3ccc4ccc5cccc6ccc3c4c56)ccc2n1CCCCCC` yielded an emission maximum (in ClCCl) of 382 nm.

For `CCOC(=O)c1c(-c2c(Cl)c3ccccc3oc2=O)nn(-c2cccc(Cl)c2)c1C(=O)OCC`, the emission maximum (in ClCCl) was 409 nm.

Molecule `CCOC(=O)c1c2c3c(ccc(OC)c3c3cc4c(cc13)[Si](C)(C)O[Si]4(C)C)N(C)C2=O` has an emission maximum (in CC#N) of 418 nm.

`O=C1c2ccccc2C(=O)N1c1ccc(Cn2cncn2)cc1` showed an emission maximum (in C1CCOC1) of 361 nm, an emission maximum (in C1COCCO1) of 313 nm and an emission maximum (in CC#N) of 471 nm. For the same molecule, the emission maximum (in CC(C)=O) was 407 nm, the emission maximum (in CC(C)O) was 427 nm and the emission maximum (in CCCCCC) was 310 nm. For the same molecule, the emission maximum (in CCCCO) was 402 nm, the emission maximum (in CCO) was 422 nm and the emission maximum (in CCOC(C)=O) was 355 nm. For the same molecule, the emission maximum (in CCOCC) was 339 nm, the emission maximum (in CN(C)C=O) was 503 nm and the emission maximum (in CO) was 440 nm. For the same molecule, the emission maximum (in CS(C)=O) was 563 nm, the emission maximum (in Cc1ccccc1) was 323 nm and the emission maximum (in ClCCl) was 367 nm.

With `CCCCCCCCOc1cc(/C=C/c2cc(OCCCCCCCC)c(/C=C/c3cc(OCCCCCCCC)c(/C=C/c4ccncc4)cc3OCCCCCCCC)cc2OCCCCCCCC)c(OCCCCCCCC)cc1/C=C/c1ccncc1` the emission maximum (in ClCCl) was 570 nm.

Work on `CCCCCCCCOc1cc(/C=C/c2ccncc2)c(OCCCCCCCC)cc1/C=C/c1ccncc1` yielded an emission maximum (in ClCCl) of 470 nm.

Molecule `CCn1ncc2c3c(C#N)c4c5ccccc5n(CC)c4nc3ccc21` has an emission maximum (in CCOC(C)=O) of 476 nm.

`COc1cc2c(cc1-c1ccncc1)Cc1c3c(c4c(c1-2)-c1cc(OC)c(-c2ccncc2)cc1C4)C(=O)N(CCC(C)C)C3=O` gave an emission maximum (in C1CCOC1) of 456 nm.

With `FC(F)(F)c1ccc(-c2nnc(-c3cc(-n4c5ccccc5c5ccccc54)c(-n4c5ccccc5c5ccccc54)cc3-c3nnc(-c4ccc(C(F)(F)F)cc4)o3)o2)cc1` the emission maximum (in CC#N) was 544.97 nm, the emission maximum (in Cc1ccccc1) was 487 nm and the emission maximum (in ClCCl) was 519.92 nm.

Molecule `COc1ccc2n1[B-](F)(F)[N+]1=CC=CC1=C2c1ccccc1` has an emission maximum (in CC#N) of 513 nm, an emission maximum (in CCCCCC) of 514 nm and an emission maximum (in CCOC(C)=O) of 514 nm. For the same molecule, the emission maximum (in CO) was 512 nm and the emission maximum (in ClCCl) was 518 nm.

`C(=C1c2ccccc2CCc2ccccc21)c1ccc(-c2cc(-c3ccc(C=C4c5ccccc5CCc5ccccc54)cc3)cc(-c3ccc(C=C4c5ccccc5CCc5ccccc54)cc3)c2)cc1` showed an emission maximum (in C1CCOC1) of 403 nm.

In the case of `CCCCCCN(CCCCCC)c1ccc(C#Cc2c(F)c(F)c(F)c(F)c2F)cc1`, the emission maximum (in CO) was 464 nm and the emission maximum (in ClCCl) was 502 nm.

`Clc1cccc(-c2nc3sc4ccccc4c3s2)c1` gave an emission maximum (in CS(C)=O) of 420 nm.

`Cc1ccc(C2=C3C=C(I)C(I)=[N+]3[B-](F)(F)n3c2cc(I)c3I)cc1` showed an emission maximum (in C1CCCCC1) of 593 nm, an emission maximum (in CC#N) of 591 nm and an emission maximum (in CCO) of 595 nm. It also gave an emission maximum (in CCOC(C)=O) of 591.5 nm, an emission maximum (in CO) of 593.5 nm and an emission maximum (in OCC(F)(F)F) of 588 nm.

For `CC[N+](CC)=c1ccc2c(-c3ccccc3C(=O)O)c3c(=O)oc4c5c6c(cc4c3oc-2c1)CCCN6CCC5`, the emission maximum (in CCO) was 674 nm, the emission maximum (in ClC(Cl)Cl) was 664 nm and the emission maximum (in O) was 684 nm.

`[NH-]c1cc(N)cc(-c2nc3ccccc3s2)c1` showed an emission maximum (in O) of 484 nm.

With `COc1ccc(C2=C(C)C3=C(c4c(-c5ccccn5)nc5ccccn45)c4c(C)c(-c5ccc(OC)cc5)c(C)n4[B-](F)(F)[N+]3=C2C)cc1` the emission maximum (in ClCCl) was 608 nm.

In the case of `F[B-]1(F)OC(c2ccccc2)=Cc2c3ccccc3cc[n+]21`, the emission maximum (in ClC(Cl)Cl) was 463.2 nm.

With `CC1=CC(C)=[N+]2C1=C(c1ccccc1)c1c(C)cc(C)n1[B-]2(F)F` the emission maximum (in C1CCOC1) was 512 nm and 510 nm, the emission maximum (in CC#N) was 508 nm and the emission maximum (in CC(=O)C(C)(C)C) was 511 nm. The emission maximum (in CC(C)=O) was 509 nm, the emission maximum (in CCCCCC) was 511 nm and the emission maximum (in CCOC(C)=O) was 510 nm. For the same molecule, the emission maximum (in CO) was 509 nm and 510 nm, the emission maximum (in Cc1ccccc1) was 516 nm and the emission maximum (in ClCCl) was 513 nm.

`CCCCN1C(=O)c2cc(Br)c3c4c(Br)c(Br)c5c6c(cc(Br)c(c7c(Br)c(Br)c(c2c37)C1=O)c64)C(=O)N(CCCC)C5=O` showed an emission maximum (in ClC(Cl)Cl) of 580 nm.

In the case of `CN1/C(=C/C=C(/C=C/C2=[N+](C)c3ccccc3C2(C)C)c2ccc(F)cc2)C(C)(C)c2ccccc21`, the emission maximum (in CCO) was 666 nm, the emission maximum (in CO) was 666 nm and the emission maximum (in CS(C)=O) was 669 nm. For the same molecule, the emission maximum (in O) was 662 nm.

With `CCCCCCCCOc1cc(/C=C/c2cc(OCCCCCCCC)c(/C=C/c3cc(OCCCCCCCC)c(Br)cc3OCCCCCCCC)cc2OCCCCCCCC)c(OCCCCCCCC)cc1Br` the emission maximum (in ClCCl) was 467 nm.

Molecule `COc1cc2c(cc1OC)C1=C[C@H](c3ccccc3)C3(C(C(=O)O[C@@H]4C[C@H]5CC[C@@H]4C5)=C(C(=O)O[C@H]4C[C@@H]5CC[C@H]4C5)N1CC2)c1ccccc1-c1ccccc13` has an emission maximum (in ClCCl) of 422 nm.

For `C[N+]1=C(/C=C/C2=C3Oc4c(cc5c6c4CCCN6CCC5)C(c4ccccc4C(=O)O)=C3CCC2)C(C)(C)c2ccccc21`, the emission maximum (in CC#N) was 760 nm, the emission maximum (in CCO) was 745 nm and the emission maximum (in CO) was 749 nm. For the same molecule, the emission maximum (in ClC(Cl)Cl) was 757 nm.

`CN(C)c1ccc(-c2ccc3n2[B-](F)(F)[N+]2=C(c4ccccc4)C=CC2=C3C(F)(F)F)cc1` gave an emission maximum (in C1COCCO1) of 756 nm, an emission maximum (in CC#N) of 772 nm and an emission maximum (in CCCCCC) of 696 nm. For the same molecule, the emission maximum (in CCCCO) was 745 nm, the emission maximum (in CCCCOCCCC) was 728 nm and the emission maximum (in CCO) was 750 nm. The emission maximum (in CCOC(C)=O) was 755 nm, the emission maximum (in CS(C)=O) was 800 nm and the emission maximum (in Cc1ccccc1) was 746 nm. For the same molecule, the emission maximum (in ClC(Cl)(Cl)Cl) was 712 nm.

`Cc1ccc2c(c1)c1cc(C)ccc1n2-c1c(-n2c3ccccc3c3ccccc32)c(C#N)c(-n2c3ccccc3c3ccccc32)c(-n2c3ccc(C)cc3c3cc(C)ccc32)c1-n1c2ccccc2c2ccccc21` gave an emission maximum (in Cc1ccccc1) of 480 nm.

In the case of `CN(C)c1ccc(/C=C2\CC/C(=C\c3ccc(N(C)C)cc3)C2=O)cc1`, the emission maximum (in C1CCOC1) was 529 nm, the emission maximum (in C1COCCO1) was 493 nm and the emission maximum (in CC#N) was 587 nm. It also gave an emission maximum (in CC(C)=O) of 565 nm, an emission maximum (in CC(C)O) of 590 nm and an emission maximum (in CCO) of 613 nm. For the same molecule, the emission maximum (in CCOC(C)=O) was 528 nm, the emission maximum (in CN(C)C=O) was 575 nm and the emission maximum (in CO) was 635 nm. The emission maximum (in CS(C)=O) was 588 nm, the emission maximum (in Cc1ccccc1) was 482 nm and the emission maximum (in ClC(Cl)(Cl)Cl) was 478 nm. It also gave an emission maximum (in ClC(Cl)Cl) of 543 nm, an emission maximum (in ClCCl) of 547 nm and an emission maximum (in S=C=S) of 497 nm.

Molecule `C(=C\c1cccnc1)/c1ccc(Nc2ccccc2)cc1` has an emission maximum (in CC#N) of 456 nm and an emission maximum (in CCCCCC) of 385 nm.

Molecule `CC[NH+](CC)c1ccc(-c2nc3c4ccccc4n(C)c3nc2-c2ccc(B(c3c(C)cc(C)cc3C)c3c(C)cc(C)cc3C)cc2)cc1` has an emission maximum (in C1CCOC1) of 451.19 nm.

Work on `C1=Cc2nc1c(-c1ccccc1)c1ccc([nH]1)c(-c1ccccc1)c1nc(c(-c3ccccc3)c3ccc([nH]3)c2-c2ccccc2)C=C1` yielded an emission maximum (in CC(=O)N(C)C) of 650 nm and an emission maximum (in ClCCl) of 651 nm.

With `CC(C)[Si](C#Cc1c2nc3c(nc2c(C#C[Si](C(C)C)(C(C)C)C(C)C)c2nc4c(nc12)C1c2ccccc2C4c2ccccc21)C1c2ccccc2C3c2ccccc21)(C(C)C)C(C)C` the emission maximum (in CCCCCC) was 466 nm.

In the case of `F[B-]1(F)n2c(c3cccc4cccc2c43)=Nc2ccc3ccccc3[n+]21`, the emission maximum (in C1CCOC1) was 508 nm, the emission maximum (in CC#N) was 505 nm and the emission maximum (in CCCCCC) was 502 nm. It also gave an emission maximum (in Cc1ccccc1) of 511 nm and an emission maximum (in ClCCl) of 536 nm.

`COc1cc(-c2cc(-c3ccccc3)c(-c3ccccc3)c(-c3ccccc3)c2-c2ccccc2)c(OC)cc1-c1ccc(N(C)C)cc1` showed an emission maximum (in ClC(Cl)Cl) of 396 nm.

`COc1ccc2c(c1)C(=O)c1ccccc1-2` gave an emission maximum (in C1CCCCC1) of 518 nm and an emission maximum (in CC#N) of 568 nm.

In the case of `[C-]#[N+]c1ccc(-c2ccc(N)cc2)cc1`, the emission maximum (in C1CCCCC1) was 354 nm, the emission maximum (in C1CCOC1) was 396 nm and the emission maximum (in C1COCCO1) was 383 nm. The emission maximum (in CC#N) was 410 nm, the emission maximum (in CC(C)=O) was 407 nm and the emission maximum (in CCCCCC) was 353 nm. It also gave an emission maximum (in CCOC(C)=O) of 397 nm, an emission maximum (in CN(C)C=O) of 423 nm and an emission maximum (in CO) of 419 nm. It also gave an emission maximum (in CS(C)=O) of 424 nm, an emission maximum (in Cc1ccccc1) of 371 nm and an emission maximum (in ClC(Cl)Cl) of 398 nm. The emission maximum (in ClCCl) was 390 nm, the emission maximum (in O) was 457 nm and the emission maximum (in c1ccncc1) was 415 nm.

`CN(C)c1cc2c(cc1F)c(=O)c1cc(F)c(N3CCCCC3)cc1n2C` gave an emission maximum (in CCO) of 443 nm.

With `O=C(O)CCCc1ccc2ccc3cccc4ccc1c2c34` the emission maximum (in CO) was 375 nm.

`CC(C)[Si](C#Cc1c2ccccc2c(C#Cc2c3ccccc3c(C#Cc3c4ccccc4c(C#Cc4c5ccccc5c(C#Cc5c6ccccc6c(C#C[Si](C(C)C)(C(C)C)C(C)C)c6ccccc56)c5ccccc45)c4ccccc34)c3ccccc23)c2ccccc12)(C(C)C)C(C)C` showed an emission maximum (in Cc1ccccc1) of 623 nm.

For `CN1/C(=C/C=C/C2=[N+](C)c3ccccc3C2(C)C)Sc2ccccc21`, the emission maximum (in CS(C)=O) was 569 nm.

In the case of `CCC1=C(C)C2=C(C)c3cc(I)cn3[B-](F)(F)[N+]2=C1C`, the emission maximum (in C1CCCCC1) was 532 nm, the emission maximum (in CC(C)=O) was 532.5 nm and the emission maximum (in CCO) was 534 nm. For the same molecule, the emission maximum (in CCOC(C)=O) was 531.5 nm, the emission maximum (in CO) was 533.5 nm and the emission maximum (in OCC(F)(F)F) was 530.5 nm.

`CN1C(=O)c2cccc3c(-n4c5ccccc5c5ccccc54)ccc(c23)C1=O` showed an emission maximum (in C1CCOC1) of 537 nm, an emission maximum (in CCCCCC) of 440 nm and an emission maximum (in ClC(Cl)Cl) of 489 nm. The emission maximum (in ClCCl) was 556 nm.
